Here are results for three compounds from PMC4169885 (Biochemical pharmacology, 2014).

Data set [1] deals with T1, CYP2J2 (Homo sapiens, UniProt P51589).
T1 sequence (P51589 1-502): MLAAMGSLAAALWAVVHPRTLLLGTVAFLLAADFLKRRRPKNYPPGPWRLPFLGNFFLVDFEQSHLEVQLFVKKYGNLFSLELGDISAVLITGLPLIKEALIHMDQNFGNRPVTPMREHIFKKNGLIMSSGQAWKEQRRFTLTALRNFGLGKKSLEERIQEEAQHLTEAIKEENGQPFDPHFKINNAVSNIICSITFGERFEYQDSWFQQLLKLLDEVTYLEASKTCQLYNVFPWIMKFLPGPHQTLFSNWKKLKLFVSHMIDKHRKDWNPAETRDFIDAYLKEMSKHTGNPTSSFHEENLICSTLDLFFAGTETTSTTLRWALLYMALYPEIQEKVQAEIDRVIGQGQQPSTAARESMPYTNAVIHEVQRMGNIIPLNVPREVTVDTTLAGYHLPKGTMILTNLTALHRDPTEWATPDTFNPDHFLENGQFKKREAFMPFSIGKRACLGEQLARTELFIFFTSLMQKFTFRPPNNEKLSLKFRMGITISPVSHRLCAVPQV
Conditions: CYP2J2, linear scaled according to kinact/KI (SCHH approach).

A short description of data set [2]: Plasma concentration-time profile of RTV and metabolites. The format is in vivo. To be noted: human, 400 mg bid.
The subject of the next data set is CYP3A4. To be noted: ref [27] [11]; cited from earlier work.
In the next data set the target is CYP2D6 (Homo sapiens, UniProt P10635). Conditions: CYP2D6, R2 formation; ref [6], [34]; cited from earlier work.
Data set [3] concerns the target T1, CYP2J2. Put plainly: in vitro. Conditions: recombinant enzyme.
The test system of data set [4] is CYP2J2. Conditions: projected; ref [14]; cited from earlier work.

The structures appear in SMILES notation.

Sequence of CYP2D6 (P10635 whole entry): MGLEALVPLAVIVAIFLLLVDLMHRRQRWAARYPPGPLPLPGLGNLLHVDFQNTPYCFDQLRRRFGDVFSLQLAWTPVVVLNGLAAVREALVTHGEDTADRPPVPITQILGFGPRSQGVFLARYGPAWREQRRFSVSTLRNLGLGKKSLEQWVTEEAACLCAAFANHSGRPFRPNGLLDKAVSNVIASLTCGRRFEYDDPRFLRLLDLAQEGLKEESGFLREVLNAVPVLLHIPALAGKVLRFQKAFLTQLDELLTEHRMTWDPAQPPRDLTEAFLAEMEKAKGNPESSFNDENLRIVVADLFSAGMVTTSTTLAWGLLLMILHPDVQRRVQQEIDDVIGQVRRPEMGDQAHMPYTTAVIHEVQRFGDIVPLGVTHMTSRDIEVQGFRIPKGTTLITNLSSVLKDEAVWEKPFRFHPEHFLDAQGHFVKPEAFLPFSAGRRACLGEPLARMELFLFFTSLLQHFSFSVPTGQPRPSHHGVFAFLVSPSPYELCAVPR

Broadly, the Cmax is the highest concentration seen after dosing. The term Km denotes the concentration of substrate that gives half-maximal velocity. In the case of `CC(C)c1nc(CN(C)C(=O)N[C@H](C(=O)N[C@@H](Cc2ccccc2)C[C@H](O)[C@H](Cc2ccccc2)NC(=O)OCc2cncs2)C(C)C)cs1` [RTV, Ritonavir], the “slope at 1 μM” value is on record as 0.0044 ^4 μM min^-1 on CYP2J2 [1] and 0.17 ^2 μM min^-1 in the data set with CYP3A4. Moreover, in data set [2], the Cmax turned out to be 4.8 µM. Moreover, the Km at CYP2D6 is 1.6 µM.
The inhibition is the share of the control response that was lost under treatment. In the case of `C#C[C@]1(O)CC[C@H]2[C@@H]3CCC4=Cc5oncc5C[C@]4(C)[C@H]3CC[C@@]21C` [danazol], on CYP2J2 [3], the inhibition at 5 min stood at 95%.
As for `CC(C)(C)c1ccc(C(=O)CCCN2CCC(OC(c3ccccc3)c3ccccc3)CC2)cc1` [ebastine], the “contribution of CYP2J2 to intestinal ebastine hydroxylation” value with CYP2J2 [4] is reported as at most 70%.
